Experiment in all cases: HotSpot kinase profiling
Holding throughout (type): biochemical

One assay concerns the target T1, CAMK2d (Homo sapiens, UniProt Q13557).
T1 construct: purchased Reaction Biology Corp
Put shortly:
(§1)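 P81 filtration radiometric readout; 2 h incubation at room temperature; 0.1% phosphoric acid wash; DMSO negative control; % inhibition, mean of replicate runs.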

In another assay the target is T2, DYRK1/DYRK1A (Homo sapiens, UniProt Q13627).
T2 construct: purchased Reaction Biology Corp

Another assay has as its target T3, GLK/MAP4K3 (Homo sapiens, UniProt Q8IVH8).
T3 construct: purchased Reaction Biology Corp
T3 sequence (Q8IVH8 1-894): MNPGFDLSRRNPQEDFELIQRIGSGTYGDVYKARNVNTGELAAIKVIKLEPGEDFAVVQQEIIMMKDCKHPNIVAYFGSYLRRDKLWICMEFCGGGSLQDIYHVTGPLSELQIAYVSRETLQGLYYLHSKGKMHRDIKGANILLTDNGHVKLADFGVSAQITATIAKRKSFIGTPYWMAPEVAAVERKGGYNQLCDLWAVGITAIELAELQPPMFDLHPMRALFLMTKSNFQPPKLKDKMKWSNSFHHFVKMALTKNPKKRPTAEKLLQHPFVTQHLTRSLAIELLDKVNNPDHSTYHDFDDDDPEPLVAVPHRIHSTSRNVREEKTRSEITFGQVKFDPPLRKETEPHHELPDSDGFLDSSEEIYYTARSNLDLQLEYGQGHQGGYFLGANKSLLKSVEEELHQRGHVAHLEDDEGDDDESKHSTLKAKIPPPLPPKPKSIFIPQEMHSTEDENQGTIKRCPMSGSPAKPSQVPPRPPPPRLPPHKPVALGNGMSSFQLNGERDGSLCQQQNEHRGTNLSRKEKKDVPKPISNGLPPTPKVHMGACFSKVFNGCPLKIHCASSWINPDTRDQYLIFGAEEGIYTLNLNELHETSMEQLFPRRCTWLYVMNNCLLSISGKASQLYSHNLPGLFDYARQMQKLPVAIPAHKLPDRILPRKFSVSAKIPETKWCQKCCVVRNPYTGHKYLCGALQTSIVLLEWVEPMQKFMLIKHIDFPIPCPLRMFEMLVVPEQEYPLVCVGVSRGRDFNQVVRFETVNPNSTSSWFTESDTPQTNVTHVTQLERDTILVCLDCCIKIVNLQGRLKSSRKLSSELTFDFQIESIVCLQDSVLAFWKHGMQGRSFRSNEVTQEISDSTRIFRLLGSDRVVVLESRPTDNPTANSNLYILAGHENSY
Summed up: as §1

Another assay has as its target T4, MEK2 (Homo sapiens, UniProt P36507).
T4 construct: purchased Reaction Biology Corp
Summed up: as §1

The target of another assay is T5, MUSK (Homo sapiens, UniProt O15146).
T5 construct: purchased Reaction Biology Corp
T5 sequence (O15146 24-869): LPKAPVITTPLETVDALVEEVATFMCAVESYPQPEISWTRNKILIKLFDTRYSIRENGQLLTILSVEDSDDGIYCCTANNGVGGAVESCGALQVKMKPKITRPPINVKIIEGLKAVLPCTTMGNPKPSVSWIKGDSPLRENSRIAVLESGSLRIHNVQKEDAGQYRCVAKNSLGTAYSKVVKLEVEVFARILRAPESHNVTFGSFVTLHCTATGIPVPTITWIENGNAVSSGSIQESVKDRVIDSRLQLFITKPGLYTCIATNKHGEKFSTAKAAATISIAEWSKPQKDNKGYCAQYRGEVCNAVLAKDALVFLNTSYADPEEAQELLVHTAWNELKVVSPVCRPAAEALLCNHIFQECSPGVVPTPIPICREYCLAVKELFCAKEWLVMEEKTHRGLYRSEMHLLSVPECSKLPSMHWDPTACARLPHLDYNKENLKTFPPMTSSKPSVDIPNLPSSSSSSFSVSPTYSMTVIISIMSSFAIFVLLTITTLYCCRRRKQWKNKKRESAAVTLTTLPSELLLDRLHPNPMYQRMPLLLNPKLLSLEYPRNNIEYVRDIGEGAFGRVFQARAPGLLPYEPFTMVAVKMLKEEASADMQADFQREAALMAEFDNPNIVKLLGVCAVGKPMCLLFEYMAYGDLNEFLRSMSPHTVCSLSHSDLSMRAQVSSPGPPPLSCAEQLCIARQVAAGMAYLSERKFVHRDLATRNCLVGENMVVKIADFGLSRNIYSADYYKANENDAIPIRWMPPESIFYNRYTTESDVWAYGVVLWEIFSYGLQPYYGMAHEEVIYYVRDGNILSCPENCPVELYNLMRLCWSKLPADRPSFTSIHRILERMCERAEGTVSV
Put shortly:
as §1

Setting [1] is: read-out: % Enzyme Activity (relative to DMSO controls) Run 1.
Where [2] appears, read: read-out: % Enzyme Activity (relative to DMSO controls) Run 2.

Like-named read-outs stand apart in the source and are kept apart here.

T4 sequence (P36507 whole entry): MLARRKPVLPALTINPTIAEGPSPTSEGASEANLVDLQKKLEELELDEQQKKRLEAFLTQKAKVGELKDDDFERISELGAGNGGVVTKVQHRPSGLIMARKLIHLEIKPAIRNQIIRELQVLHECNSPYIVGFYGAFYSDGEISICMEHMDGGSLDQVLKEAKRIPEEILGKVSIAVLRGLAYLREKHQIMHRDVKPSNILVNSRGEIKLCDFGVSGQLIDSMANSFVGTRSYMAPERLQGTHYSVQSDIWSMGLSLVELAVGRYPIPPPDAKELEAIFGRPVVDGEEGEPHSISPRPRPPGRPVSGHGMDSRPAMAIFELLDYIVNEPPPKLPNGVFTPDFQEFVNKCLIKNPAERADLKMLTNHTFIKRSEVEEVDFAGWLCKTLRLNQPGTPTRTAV
T1 sequence (Q13557 whole entry): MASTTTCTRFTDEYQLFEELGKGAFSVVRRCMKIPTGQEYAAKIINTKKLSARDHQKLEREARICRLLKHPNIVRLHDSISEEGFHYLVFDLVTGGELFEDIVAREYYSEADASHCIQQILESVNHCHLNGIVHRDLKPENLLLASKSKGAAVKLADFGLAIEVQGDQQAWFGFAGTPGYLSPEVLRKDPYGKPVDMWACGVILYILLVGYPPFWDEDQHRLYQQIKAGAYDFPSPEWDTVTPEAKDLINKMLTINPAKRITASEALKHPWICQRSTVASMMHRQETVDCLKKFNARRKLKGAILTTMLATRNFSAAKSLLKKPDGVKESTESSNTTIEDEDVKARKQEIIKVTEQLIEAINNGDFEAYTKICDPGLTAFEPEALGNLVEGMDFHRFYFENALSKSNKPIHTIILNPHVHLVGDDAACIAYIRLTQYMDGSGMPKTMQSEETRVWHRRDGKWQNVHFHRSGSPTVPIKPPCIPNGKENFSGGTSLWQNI

As for `C=CC(=O)Nc1cccc(Nc2nc(Nc3ccc(OCCOC)c(F)c3)ncc2F)c1` [Compound 2], the inhibition at 3 µM is -23.3% on CAMK2d; 12% against DYRK1/DYRK1A; -5.08% against GLK/MAP4K3; -5.66% against MEK2; 30.9% against MUSK. Besides, the remaining activity at 3 µM on CAMK2d (setting [1]) worked out at 124%; on CAMK2d (setting [2]) it was 123%; at DYRK1/DYRK1A (setting [1]), 87.7%; at DYRK1/DYRK1A (setting [2]), 88.4%; at GLK/MAP4K3 (setting [1]), 102%; on GLK/MAP4K3 (setting [2]) it was 108%. Also, the remaining activity at 3 µM was found to be 106% on MEK2 (setting [1]), 105% on MEK2 (setting [2]), 70.2% at MUSK (setting [1]) and 68% on MUSK (setting [2]).

In general, inhibition refers to the drop in the measured response relative to a control, in per cent.
